Read-outs that look alike come from different tables or passages of the source.
Legend:
[1] = molecular target: T1, Bcl-xL protein (Homo sapiens, UniProt Q07817); test: Degradation experiment of Bcl-xL target protein (Western blot in Molt-4 cells); assay type: cell-based; details: 100 nM, 0, 2, 6, 16 h, GAPDH internal control, Figure 4
T1 construct: host or cells: Molt-4 cells

[2] = system: HEF cells; test: Senescent cell killing activity test, HEF cell model (CCK-8); assay type: cell-based, human; details: for activity for killing senescent cells at lower concentrations compared to A-1331852: HEF cell model, 0.01 µM and 0.03 µM; for killing senescent HEF cells: etoposide-induced senescent vs normal HEF cells, Figures 3A-3F; for toxicity on normal non-senescent HEF cells: higher concentration (25 µM)
[3] = system: Molt-4 cells; test: Molt-4 cell killing activity test (CCK-8); assay type: cell-based; details: for EC50: Homo sapiens
Method in brief: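 Molt-4 cells in RPMI-1640 with 10% FBS were exposed to compounds at 0.001–3 µM final, triplicate wells, for three days at 37°C. Viability was read by CCK-8 absorbance at 450 nm after 0.5–2 h, expressed relative to blank control.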

[4] = system: platelets; test: In vivo platelet toxicity test in mice
Protocol: The in vivo platelet toxicity test was performed by using 5-6 week old female C57BL/6J mice. The C57BL/6J mice were purchased from Beijing Vital River Laboratory Animal Technology Co., Ltd. and housed under specific pathogen-free (SPF) conditions, with a 12-hour light/12-hour dark cycle, and free access to food and water. […] Different doses of the molecules to be tested (e.g., 0.1, 0.5, 2.5 mg/kg or 2, 5, 20 mg/kg) were prepared in advance with the aforementioned vehicle, and administered to mice via intraperitoneal injection at a volume of 200 µL for each mouse. After administration was completed, approximately 50 µL of blood was collected from each mouse at different time points via the intra-canthus sampling method into EDTA anticoagulant tubes (RAM Scientific), then a routine analysis of blood was performed by using a hematology analyzer, and the platelets was counted.

[5] = 72 h, Molt-4 cells, three days, CCK-8, read-out: EC50 (Molt-4)
[6] = Bcl-xL-positive Molt-4 cells, read-out: cellular activity / killing activity (Molt-4 cells)

T1 sequence (Q07817 whole entry): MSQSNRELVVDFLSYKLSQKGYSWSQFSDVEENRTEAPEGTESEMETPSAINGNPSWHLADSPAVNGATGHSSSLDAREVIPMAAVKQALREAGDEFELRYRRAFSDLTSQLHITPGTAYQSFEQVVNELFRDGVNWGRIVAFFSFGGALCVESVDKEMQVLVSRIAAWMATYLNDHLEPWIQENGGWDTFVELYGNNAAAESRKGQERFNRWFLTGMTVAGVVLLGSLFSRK

With O=C1CCC(N2C(=O)c3cccc(NCCN4CCC(CN5CCN(CC#Cc6ccc(OCCCc7ccc(N8CCc9cccc(C(=O)Nc%10nc%11ccccc%11s%10)c9C8)nc7C(=O)O)c(F)c6)CC5)CC4)c3C2=O)C(=O)N1 (centres unmarked) [APQ2] the “degradation of the Bcl-xL protein” value [1] was “had the ability to degrade the Bcl-xL protein”, the “activity for killing senescent cells at lower concentrations compared to A-1331852” value [2] was “better activity for killing senescent cells at lower concentrations” and the “killing senescent HEF cells” value [2] was “efficiently and selectively kill senescent HEF cells”. The “toxicity on normal non-senescent HEF cells” value [2] was “no toxicity on normal non-senescent HEF cells”, the “killing Molt-4 cells at different concentrations (Figure 1), in words” value ([3]; Figure 1, 0.001-3 µM, comparison with control molecules) was “comparable to A-1331852” and the EC50 [3, 5] was less than 10 nM. The EC50 [3, 6] was less than 10 nM and the platelet number ([4]; intraperitoneal, three tested dose groups 0.1, 0.5, and 2.5 mg/kg, Figure 5A) was “no significant decrease in platelet number”.

O=C1CCN(c2ccc(N3CCC(CN4CCN(CC#Cc5ccc(OCCCc6ccc(N7CCc8cccc(C(=O)Nc9nc%10ccccc%10s9)c8C7)nc6C(=O)O)c(F)c5)CC4)CC3)cc2)C(=O)N1 [APQ10] was tested, and the “degradation of the Bcl-xL protein” value [1] was “had the ability to degrade the Bcl-xL protein”, the “activity for killing senescent cells at lower concentrations compared to A-1331852” value [2] was “better activity for killing senescent cells at lower concentrations” and the “killing senescent HEF cells” value [2] was “efficiently and selectively kill senescent HEF cells”. The “toxicity on normal non-senescent HEF cells” value [2] was “no toxicity on normal non-senescent HEF cells”, the EC50 [3, 5] was less than 10 nM and the EC50 [3, 6] was less than 10 nM. For the same compound, the “platelet number in peripheral blood, in words” value ([4]; intraperitoneal, 5 mg/kg, Figure 5B) was “slightly decrease in platelet number”, the “platelet number at the highest dose” value ([4]; intraperitoneal, 20 mg/kg, decrease lower than A-1331852 at 2 mg/kg, Figure 5C) was “significant decrease in the platelet number” and the “platelet toxicity compared to A-1331852 at equivalent doses” value ([4]; intraperitoneal, 2, 5, and 20 mg/kg, Figure 5C) was “lower platelet toxicity”.

Reference: patent publication EP4759810A1, “PROTAC TARGETING BCL-XL PROTEIN AND USE THEREOF” (BEIJING SUNCELL BIO-MEDICAL CO., LTD., priority 2023, dated 2025)
